How the values were obtained:
ERK2 = ERK2 (Homo sapiens (Human), UniProt P28482); experiment: Active ERK1 and ERK2 Kinase Assay (Mobility Shift Assay); format: biochemical; conditions: activated ERK2, Mobility Shift Assay
In short: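 Mobility shift assay: compound preincubated with activated kinase 30 min at rt in 20 mM HEPES pH 7.5, 0.01% Triton X-100, 2 mM DTT. Reaction started with fluorescent substrate, ATP and metal, run 1 h at rt; activity taken as product ratio P/(P+S) after LabChip peptide separation.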

A375 (melanoma) cells = experiment: Proliferation Assay (CellTiter-Glo); format: cell-based; conditions: 3 days incubation, CellTiter-Glo luminescence
In short: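 A375 cells in RPMI-1640 with 10% FBS, plated overnight, then exposed to 10-point 3-fold serial compound dilutions for 3 days at 37° C, 5% CO2. Viability read by CellTiter-Glo luminescence.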

ERK2, sequence (P28482 whole entry): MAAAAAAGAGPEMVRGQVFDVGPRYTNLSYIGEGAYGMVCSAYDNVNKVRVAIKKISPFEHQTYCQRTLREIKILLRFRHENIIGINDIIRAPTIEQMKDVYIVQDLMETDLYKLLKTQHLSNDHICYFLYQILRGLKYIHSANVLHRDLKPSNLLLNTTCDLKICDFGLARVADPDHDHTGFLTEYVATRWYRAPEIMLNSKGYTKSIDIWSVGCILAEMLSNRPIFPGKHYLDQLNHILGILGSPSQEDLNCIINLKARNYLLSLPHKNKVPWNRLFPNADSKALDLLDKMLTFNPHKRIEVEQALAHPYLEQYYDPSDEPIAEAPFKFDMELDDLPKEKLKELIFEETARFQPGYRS

Row | IC50 (ERK2) | IC50 (A375 (melanoma) cells; Homo sapiens, A-375, 72 h) | IC50 (A375 (melanoma) cells) | SMILES
1 | ≤ 50 nM | 500 to 1000 nM | – | Cn1cnc(-c2ccc(C3=CCN(C(=O)CN4CC[C@]5(CCN(c6ccc7[nH]nc(N8CCC(F)(F)CC8)c7c6)C5=O)C4)CC3)cc2)n1 [Example 3, (S)-2-(3-(4,4-difluoropiperidin-1-yl)-1H-indazol-5-yl)-7-(2-(4-(4-(1-methyl-1H-1,2,4-triazol-3-yl)phenyl)-5,6-dihydropyridin-1 (2H)-yl)-2-oxoethyl)-2,7-diazaspiro[4.4]nonan-1-one]
2 | ≤ 50 nM | – | ≤ 500 nM | Cn1cnc(-c2ccc(N3CCN(C(=O)CN4CC[C@]5(CCN(c6ccc7[nH]nc(-c8ccc(F)cn8)c7c6)C5=O)C4)CC3)nc2)n1 [Example 57]
3 | ≤ 50 nM | – | ≤ 500 nM | COc1ccc(-c2n[nH]c3ccc(N4CC[C@]5(CCN(CC(=O)N6CC=C(c7ccc(-c8ncn(C)n8)cc7)CC6)C5)C4=O)nc23)nc1OC [Example 93]

Row | SMILES | IC50 (ERK2) | IC50 (A375 (melanoma) cells; Homo sapiens, A-375, 72 h) | IC50 (A375 (melanoma) cells)
4 | C[C@@H]1CN(c2n[nH]c3ccc(N4CC[C@]5(CCN(CC(=O)N6CC=C(c7ccc(-c8ncn(C)n8)cc7)CC6)C5)C4=O)nc23)C[C@H](C)O1 [Example 48] | ≤ 50 nM | – | 500 to 1000 nM
